The species entered for experiment [1] is Rattus norvegicus. The experiment is described as follows: (§1) Activation of Sprague-Dawley rat soluble guanylate cyclase after 10 mins in presence of cysteine.
The species named for experiment [2] is Rattus norvegicus. The experiment is described as follows: Activation of Sprague-Dawley rat soluble guanylate cyclase after 10 mins in presence of cysteine relative to GTN.
Experiment [3] is described as follows: as §1.
Experiment [4] addresses Soluble guanylate cyclase (Homo sapiens) (UniProt Q02153+O75343+P33402+Q02108). The experiment is described as follows: Activation of soluble guanylate cyclase (unknown origin) assessed as apparent initial rate of oxidation of oxyhemoglobin in presence of cysteine relative to GTN. It counts as protein-complex assay.
Experiment [5] in a line: Activation of Sprague-Dawley rat soluble guanylate cyclase after 10 mins.
Experiment [6] is filed under the species Rattus norvegicus. The experiment is described as follows: Activation of Sprague-Dawley rat soluble guanylate cyclase after 10 mins relative to GTN.

Seven compounds from ChEMBL document CHEMBL3217567, “Differential activation of soluble guanylate cyclase by a series of aryl disulfanyl dinitrate esters” (Medchemcomm, 2014) can be followed below.

By Emax is commonly meant the size of the effect at its maximum, as opposed to the concentration needed. By EC50 is commonly meant the midpoint of the concentration-response curve.

`O=[N+]([O-])OCC(CSSc1ccc(F)cc1)O[N+](=O)[O-]` (stereo not drawn): the Activity entry in experiment [1] was “Dose-dependent effect”. In addition, the Emax in experiment [2] came out at 192%.
With `O=[N+]([O-])OCC(CO[N+](=O)[O-])O[N+](=O)[O-]` [NITROGLYCERIN], the EC50 in experiment [3] amounted to 200 µM.
In the case of `O=[N+]([O-])OCC(CSSc1ccccc1)O[N+](=O)[O-]` (stereo not drawn), the Activity entry in experiment [1] was “Dose-dependent effect”. Besides, the Emax in experiment [2] worked out at 201%.
With `COc1ccc(SSCC(CO[N+](=O)[O-])O[N+](=O)[O-])cc1` (stereo not drawn), in experiment [1], the Activity result is “Dose-dependent effect”. For the same compound, the Ratio in experiment [4] was 2. Moreover, the Emax in experiment [2] is 245%.
`Cc1ccc(SSCC(CO[N+](=O)[O-])O[N+](=O)[O-])cc1` (stereo not drawn) showed an EC50 in experiment [5] of 170 µM. Also, in experiment [1], the Activity entry is “Dose-dependent effect”. Further, the Efficacy in experiment [6] is 114%. For the same compound, the Emax in experiment [2] amounted to 279%.
With `O=[N+]([O-])OCC(CSSc1ccc(Cl)cc1)O[N+](=O)[O-]` (stereo not drawn), the Activity result in experiment [1] is “Dose-dependent effect”. The Emax in experiment [2] was found to be 195%.
Consider `O=[N+]([O-])OCC(CSSc1ccc(Br)cc1)O[N+](=O)[O-]` (stereo not drawn), for which the EC50 in experiment [5] was 40 µM. Moreover, in experiment [1], the Activity result is “Dose-dependent effect”. Further, the Efficacy in experiment [6] was determined as 60%. Besides, in experiment [2], the maximum response (Emax) came to 218%.
